From publication PMC8556085, “Antimicrobial and Antioxidant Secondary Metabolites from Trifolium baccarinii Chiov. (Fabaceae) and Their Mechanisms of Antibacterial Action” (BioMed Research International, 2021)
Marks after values point to notes of the source that are not given here.

Tests used:
[1] = DPPH free radical scavenging assay; details: mean ± SD
Protocol: The free radical scavenging activity of extracts and compounds was evaluated according to the described method. The EC50 (μg/mL), which is the amount of sample necessary to inhibit by 50% the absorbance of free radical DPPH, was calculated. Vitamin C was used as a standard control. All the analyses were carried out in triplicate and repeated three times.

[2] = Gallic acid equivalent antioxidant capacity (GEAC) assay; details: ABTS radical, 420 nm, 240 s; mean ± SD
How it was run: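 Purified Sclerotinia sclerotiorum laccase oxidises ABTS in acetate buffer pH 5.0 (100 mM); ABTS●+ read at 420 nm after 240 s. Samples at 10–800 μg/mL (extracts) or 12.5–200 μg/mL (isolated compounds) in assay. Values expressed as gallic acid equivalents from a 0–84 μM gallic acid calibration curve; triplicates, three repeats.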

Staphylococcus aureus = experiment: Loss of salt tolerance; format: cell-based; details: pretreatment 1/2xMIC, MIC, 2xMIC for 1 h; MHA-NaCl 50, 60, 70 g/L
Protocol: (2) Loss of Salt Tolerance in Staphylococcus aureus. The ability of Staphylococcus aureus ATCC25923 and MRSA03 cells treated with the methanol extract and compound 5 to grow on Mueller-Hinton agar (MHA) supplemented with NaCl was investigated. In preliminary experiments, untreated suspensions of Staphylococcus aureus were plated on MHA supplemented with NaCl from 40 to 100 g/L. Plates were incubated. After incubation, the resulting colonies were counted. Concentrations of NaCl, 50, 60, and 70 g/L, which modestly compromised the colony-forming abilities of untreated microorganisms, were selected. For further experimentation steps, suspensions of bacteria were prepared as previously described and treated with the MeOH extract or compound 5 at 1/2xMIC, MIC, and 2xMIC. After 1 h incubation, samples were removed, serially diluted, and inoculated onto MHA and MHA-NaCl (50, 60, and 70 g/L). Bacterial culture without a sample was used as a control for each MHA-NaCl plate. Upon incubation, the numbers of CFU per milliliter on each MHA-NaCl plate were compared to those on the MHA plate, and the result was expressed as a percentage.

[3] = system: superoxide dismutase (SOD); experiment: Superoxide dismutase (SOD) activity in treated bacterial cell lysates; format: cell-based; details: Staphylococcus aureus ATCC25923 and MRSA03, MIC and 1/2xMIC, 24 h
Protocol: (3) Antioxidant Enzyme Activities. For evaluation of catalase and superoxide dismutase (SOD) activities, Staphylococcus aureus ATCC25923 and MRSA03 (1.5 × 10^8 CFU/mL, 500 μL) cultures from the late exponential growth phase were treated with MIC and 1/2xMIC of the methanol extract (500 μL), compound 5 (500 μL), and oxacillin (500 μL) solutions and incubated at 37°C for 24 h. The suspension was centrifuged at 3000 rpm for 5 min to separate the supernatant. The pellet was washed twice with PBS and resuspended in 500 μL of cell lysate buffer (1 mM EDTA, 10 Mm Tris-HCl, 0.1% Triton-X-100, and 150 mM NaCl) and incubated at 37°C for 1 h. Contents were then centrifuged at 3000 rpm for 5 min, and the supernatant was collected for enzyme activity assays.
Superoxide dismutase (SOD) activity. This was determined using a kit (Sigma, catalogue no. 19160) in the cell lysate. […] The reaction mixture was incubated in the dark at 37°C for 20 min, and the absorbance was read at 450 nm on a BioTek Synergy 2 multiplate reader. The SOD activity was calculated based on the following formula: [(ABlank1–ABlank3) − (ASample–ABlank2)/(ABlank1–ABlank3) × 100], where Blank 1 contains ultrapure water, WST solution, and enzyme solution, Blank 2 contains sample solution, WST solution, and dilution buffer, and Blank 3 contains ultrapure water, WST solution, and dilution buffer.

4,7,2′-trihydroxy-4′-methoxyisoflavanol [compound 5]
DPPH free radical scavenging activity (EC50) [1]: 11.58 ± 0.73^f μg/mL | Gallic acid equivalent antioxidant capacity (GEAC) [2]: 61.05 ± 0.90^h μg/mL | number of colony-forming units on NaCl-supplemented media after pretreatment (Staphylococcus aureus): significant decrease | SOD activity vs untreated cell lysates [3]: significant concentration-dependent decreases
